Data reported in paper PMC10333884, “Large‐scale phosphomimetic screening identifies phospho‐modulated motif‐based protein interactions” (Molecular Systems Biology, 2023).
Residues, ends and D or L forms follow the SMILES beside them.

Key:
PDCD6IP Alix V domain [1] = target: T1, PDCD6IP Alix V domain (Homo sapiens, UniProt Q8WUM4); assay: Phosphomimetic ProP-PD selection, PDCD6IP Alix V domain; details: phosphomimetic enrichment score of the wild-type/phosphomimetic (E) pair at the phosphosite, PM_HD2 phage selection; positive = phosphomimetic enhances binding; P-value in brackets not taken
T1 construct: GST (cleaved yes); made in house; host or cells: Escherichia coli BL21-Gold(DE3)
T1 sequence (Q8WUM4 360-702): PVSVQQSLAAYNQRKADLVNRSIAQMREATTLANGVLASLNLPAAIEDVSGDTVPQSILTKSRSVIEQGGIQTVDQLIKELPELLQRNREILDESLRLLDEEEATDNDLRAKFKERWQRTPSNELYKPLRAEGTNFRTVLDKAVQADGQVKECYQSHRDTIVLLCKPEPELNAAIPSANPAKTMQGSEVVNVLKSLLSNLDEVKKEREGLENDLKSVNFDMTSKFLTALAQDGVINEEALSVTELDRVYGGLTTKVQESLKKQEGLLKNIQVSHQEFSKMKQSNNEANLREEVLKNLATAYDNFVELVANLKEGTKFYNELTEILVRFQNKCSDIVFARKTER
Experimental: (§1) Selections using the PM_HD2 phage library were performed as described previously with minor modification to the original protocol. The corresponding tag protein (either GST or MBP) was first used during negative selections. Selections were run for 4 days. • Bait and tag proteins (10–15 μg in 100 μl PBS) were immobilised in 96‐well MaxiSorb plate (NUNC) o.n. at 4°C. • Escherichia coli OmniMax bacteria were grown in 2YT medium supplemented with tetracycline (100 μg/ml) at 37°C and 200 rpm. • Plates with immobilised bait/tag proteins were blocked with 0.5% BSA in PBS for 1 h at 4°C. • Phage library (10 μl/well) was prepared by diluting 10× with PBS and adding one‐fourth of the volume of PEG/NaCl. For phage precipitation, prepared library was incubated for 10 min on ice followed by centrifugation for 10 min at 10,000 × g at 4°C. […]
(§2) Based on the results from phage pool ELISAs, samples from selection Day 3 and 4 were selected for NGS, as described previously (Benz et al, [2022]). • Peptide coding regions were amplified and dual‐barcoded by PCR. […] From the columns, samples were eluted with 30 μl TE (10 mM Tris–HCl, 1 mM EDTA. pH 7.5) buffer and quantified with Quant‐iT PicoGreen dsDNA Assay Kit. • Samples were sequenced on MiSeq (MSC 2.5.0.5/RTA 1.18.54) with a 151 nt (Read1) setup using “Version3” chemistry. […]

PDCD6IP Alix V domain [2] = target: T1, PDCD6IP Alix V domain; assay: FP displacement assay, PDCD6IP Alix V domain; assay type: binding; details: probe FITC-HIV1_Gag 5 nM, 50 mM sodium phosphate pH 7.4, room temperature, at least three technical replicates, read-out: KD values ± SEM
Experimental: (§3) FP experiments were performed as described previously (Kliche et al, [2021]). Shortly, in order to monitor the binding event, FITC‐labelled peptides were used (excitation 495 nm, emission: 535 nm) and the FP signal was recorded in mP on a SpectraMax iD5 Multi‐Mode Microplate Reader (Molecular Devices) by measuring the emitted light in two angels. The measurements were performed at room temperature and prepared in nonbinding black half area 96‐well microplates (Corning®; 50 μl/well). For measuring direct binding, that is saturation curves, a 1:1 dilution series of protein domain (25 μl/well) was generated in 50 mM sodium phosphate buffer pH 7.4 and the measurement performed with 5 nM FITC‐labelled peptide (25 μl/well). The buffer‐corrected values were subsequently plotted with PRISM and fitted to the quadratic equation (Gianni et al, [2005]).
(§4) The 1:1 dilution series in this experiment was performed with the unlabelled peptide in 50 mM sodium phosphate buffer pH 7.4, so that each well‐contained unlabelled peptide (25 μl) at a certain concentration and pre‐formed complex (25 μl). The KD values of this indirectly monitored binding event were calculated as described previously (Nikolovska‐Coleska et al, [2004]). All measurements were at least in technical triplicates as well as biological duplicates when indicated. An amplitude shift between repeat measurements in the displacement experiments was occasionally observed due to variations in the protein preparations. If that was the case, the “active” protein concentration was back‐calculated according to the quadratic equation from the saturation curves performed in parallel. By comparing the active protein concentrations in the complex between different protein preparations, the amplitude was normalised.

RANBP2 RanBD4 [3] = target: T2, RANBP2 RanBD4 (Homo sapiens, UniProt P49792); assay: Phosphomimetic ProP-PD selection, RANBP2 RanBD4; details: phosphomimetic enrichment score of the wild-type/phosphomimetic (E) pair at the phosphosite, PM_HD2 phage selection; positive = phosphomimetic enhances binding; P-value in brackets not taken
T2 construct: GST (cleaved yes); made in house; host or cells: Escherichia coli BL21-Gold(DE3)
T2 sequence (P49792 2924-3050): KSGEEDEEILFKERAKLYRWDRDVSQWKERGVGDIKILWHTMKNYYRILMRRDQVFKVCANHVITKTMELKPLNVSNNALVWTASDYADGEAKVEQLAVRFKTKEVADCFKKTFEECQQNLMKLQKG
Experimental: as §1, §2

RANBP2 RanBD4 [4] = target: T2, RANBP2 RanBD4; assay: FP displacement assay, RANBP2 RanBD4; assay type: binding; details: probe FITC-C7orf25 5 nM, 50 mM sodium phosphate pH 7.4, room temperature, at least three technical replicates, read-out: KD values ± SEM
Experimental: as §3, §4

SNX27 PDZ [5] = target: T3, SNX27 PDZ (Homo sapiens, UniProt Q96L92); assay: FP displacement assay, SNX27 PDZ (MBP-tagged); assay type: binding; details: for Kd: MBP-tagged domain, probe FITC-SYT16 5 nM, 50 mM sodium phosphate pH 7.4, room temperature, at least three technical replicates, read-out: KD values ± SEM
T3 construct: SNX27_PDZ__Q96L92_40_141; made in house; host or cells: Escherichia coli BL21-Gold(DE3)
Experimental: For FP, ITC and crystallisation, the tag was removed with the appropriate protease either on beads (0.1 mg/ml thrombin (Cytiva) in PBS, 1 mM dithiothreitol (DTT)) or by dialysis in cleavage buffer (Human Rhinovirus (HRV) 3C protease: 50 mM Tris–HCl pH 7.4, 150 mM NaCl, 1 mM β‐mercaptoethanol), both procedures were overnight. In case of HRV protease cleavage, the tag was separated from the target protein domain by reverse ion metal affinity chromatography using Ni^2+ beads for purification, whereas thrombin was removed using a benzamidine column (Cytiva). Affinity measurements for SNX27 PDZ were performed on the MBP‐tagged construct, as well as PIN1 WW domain on the GST‐tagged construct. For FP and ITC, proteins were dialysed in 50 mM sodium phosphate buffer pH 7.4, 1 mM DTT. For crystallisation of the NTD of clathrin, the protein was further purified by a S200 Sepharose column (Cytiva) using 20 mM Tris–HCl pH 7.4, 150 mM NaCl and 1 mM DTT.
as §3, §4

SNX27 PDZ [6] = target: T3, SNX27 PDZ; assay: Phosphomimetic ProP-PD selection, SNX27 PDZ; details: phosphomimetic enrichment score of the wild-type/phosphomimetic (E) pair at the phosphosite, PM_HD2 phage selection; positive = phosphomimetic enhances binding; P-value in brackets not taken
Experimental: as §1, §2

Compound | PES (PDCD6IP Alix V domain [1]) | Kd (PDCD6IP Alix V domain [2]) [µM] | PES (RANBP2 RanBD4 [3]) | Kd (RANBP2 RanBD4 [4]) [µM] | Kd (SNX27 PDZ [5]) [µM] | PES (SNX27 PDZ [6]) | also measured
CC[C@H](C)[C@H](NC(=O)[C@H](CCCCN)NC(=O)[C@H](CC(C)C)NC(=O)[C@@H]1CCCN1C(=O)[C@H](CCC(=O)O)NC(=O)[C@@H](NC(=O)[C@H](CCC(N)=O)NC(=O)[C@@H]1CCCN1C(=O)[C@H](Cc1ccc(O)cc1)NC(=O)[C@H](CC(C)C)NC(=O)[C@@H]1CCCN1C(=O)[C@H](CCCNC(=N)N)NC(=O)[C@H](CC(C)C)NC(=O)[C@@H]1CCCN1C(=O)[C@H](CO)NC(=O)[C@H](C)NC(C)=O)[C@@H](C)CC)C(N)=O [FOXK1_212–227 E] (Ac-ASPLRPLYPQIEPLKI-NH2) | 2.9 (0.04) | 13 ± 1 |  |  |  |  | 
CC(=O)N[C@@H](Cc1c[nH]cn1)C(=O)N[C@@H](CC(C)C)C(=O)N1CCC[C@H]1C(=O)N[C@@H](CC(C)C)C(=O)N[C@@H](CC(N)=O)C(=O)N[C@@H](CCC(=O)O)C(=O)N1CCC[C@H]1C(=O)N[C@@H](CC(C)C)C(=O)N1CCC[C@H]1C(=O)NCC(=O)N[C@@H](CO)C(=O)N[C@@H](CCC(=O)O)C(=O)N[C@@H](CC(C)C)C(=O)N[C@H](C(=O)N[C@@H](CCCCN)C(=O)N[C@@H](Cc1ccc(O)cc1)C(N)=O)[C@@H](C)O [INTS6_145–159 E] (Ac-HLPLNEPLPGSELTKY-NH2) |  |  | −4 (0.0044) | 1080 |  |  | 
CC(=O)N[C@@H](CC(N)=O)C(=O)N[C@@H](CC(C)C)C(=O)N[C@@H](CC(C)C)C(=O)N[C@@H](CC(C)C)C(=O)N[C@@H](CCC(=O)O)C(=O)N[C@@H](CCCNC(=N)N)C(=O)N[C@@H](CC(=O)O)C(=O)N[C@H](C(=O)N[C@@H](CCC(=O)O)C(=O)N[C@@H](Cc1ccccc1)C(=O)N[C@H](C(=O)N[C@H](C(=O)N[C@@H](C)C(=O)N1CCC[C@H]1C(=O)N[C@@H](CC(=O)O)C(=O)N[C@@H](Cc1ccc(O)cc1)C(N)=O)C(C)C)[C@@H](C)O)[C@@H](C)O [CDC25C30–44 E] (Ac-NLLLERDTEFTVAPDY-NH2) |  |  |  |  | 680 ± 40 | −6 (0.00063) | 
CC(=O)N[C@@H](CCCCN)C(=O)N[C@@H](Cc1ccc(O)cc1)C(=O)N[C@@H](CO)C(=O)N[C@@H](CC(=O)O)C(=O)N[C@@H](CC(=O)O)C(=O)N[C@H](C(=O)N1CCC[C@H]1C(=O)N[C@@H](CC(C)C)C(=O)N1CCC[C@H]1C(=O)N[C@@H](CCC(=O)O)C(=O)N1CCC[C@H]1C(=O)N[C@@H](CO)C(=O)N[C@@H](Cc1ccc(O)cc1)C(=O)N[C@@H](CCCCN)C(=O)N[C@@H](Cc1ccc(O)cc1)C(=O)N[C@@H](CC(N)=O)C(N)=O)[C@@H](C)O [DHX38_260–275 E] (Ac-KYSDDTPLPEPSYKYN-NH2) |  |  | 3 (0.04) | 470 ± 35 |  |  | 
CC(=O)N[C@H](C(=O)N[C@@H](CCC(=O)O)C(=O)N1CCC[C@H]1C(=O)N[C@@H](CC(C)C)C(=O)N[C@H](C(=O)N[C@@H](CO)C(=O)N[C@@H](CC(C)C)C(=O)N[C@@H](Cc1ccc(O)cc1)C(=O)N1CCC[C@H]1C(=O)N[C@@H](C)C(=O)N[C@@H](CC(C)C)C(=O)N[C@@H](CCC(=O)O)C(=O)N[C@@H](C)C(=O)N[C@@H](CCCNC(=N)N)C(=O)N[C@@H](C)C(=O)N[C@@H](CC(C)C)C(N)=O)C(C)C)[C@@H](C)O [OTUD5_507–522 E] (Ac-TEPLVSLYPALEARAL-NH2) | 0.66 (0.34) | 88 ± 7 |  |  |  |  | 
CSCC[C@H](NC(=O)CNC(C)=O)C(=O)N[C@H](C(=O)N[C@@H](CO)C(=O)N[C@@H](CCC(=O)O)C(=O)N[C@H](C(=O)N[C@@H](CO)C(=O)N[C@@H](Cc1ccccc1)C(=O)N[C@@H](CC(N)=O)C(=O)NCC(=O)NCC(=O)N[C@@H](Cc1ccc(O)cc1)C(N)=O)[C@@H](C)O)C(C)C [DAXX606–616 E] (Ac-GMVSETSFNGGY-NH2) |  |  |  |  | 23 ± 4 | 6 (0.00063) | IC50 (SNX27 PDZ [5]; Fig 4B, SNX27 PDZ, technical triplicates, read-out: IC50 values of displacement curves, with SEM): 117 ± 25 µM
